In patent US6225334A (priority 1996, dated 2001):
Read-outs that look alike come from different tables or passages of the source.

How the values were obtained:
[1] = tested on: Phytophthora infestans; assay type: in vivo; settings: 3 days after the inoculation, tomato, protective
[2] = logP (HPLC); assay type: physicochemical
[3] = tested on: greenhouse red spider mite (Tetranychus urticae); test: Tetranychus-Test (OP-resistant/dip treatment); settings: 168 h, read-out: kill
Experimental: 7.5 parts by weight of dimethylformamide
100 parts by weight of methanol
Emulsifier: 2.5 parts by weight of alkylaryl polyglycol ether
After the desired period of time, the activity in % is determined. 100% means that all spider mites have been killed; 0% means that none of the spider mites have been killed.

[4] = tested on: beet army-worm (Spodoptera frugiperda); test: Spodoptera test; assay type: in vivo; settings: 216 h, active compound concentration of 0.05%, after 9 days, larvae L2-L3 on synthetic feed, read-out: kill
Experimental: 100 parts by weight of acetone
1900 parts by weight of methanol
A stated amount of the preparation of active compound of the desired concentration is pipetted onto a standardized amount of synthetic feed. In 3 replications, one larva (L2 -L3) each of the beet army-worm (Spodoptera frugiperda) is placed on the feed.
After the desired period of time, the kill in % is determined.

[5] = tested on: Plasmopara viticola; test: Plasmopara-Test (Grapevines)/protective; assay type: in vivo; settings: application rate of 50 g/ha, 6 days after the inoculation, protective
[6] = first of two values printed (x/y)

SMILES	chromatographic logP [2, 6]	chromatographic logP ([2]; second of two values)	also measured
COc1ccc(CCNC(=O)C(=NOC(C)=O)c2ccc3c(c2)CCCC3)cc1OC [Example I-1, N-[(3,4-dimethoxyphenyl)-2-ethyl]-2-acetoxyimino-2-(2-tetrahydronaphthyl)-acetamide]	–	–	efficacy compared to the untreated control ([1]; application rate of 50 g/ha): 95%
CCOC(=O)ON=C(C(=O)NCCc1ccc(OC)c(OC)c1)c1ccc2c(c1)CCCC2 [Example I-3]	3.19	3.55	–
COc1ccc(CCNC(=O)C(=NOC(=O)OC(C)C)c2ccc3c(c2)CCCC3)cc1OC [Example I-4]	3.55	3.84	–
COc1ccc(CCNC(=O)C(=NOC(=O)Oc2ccccc2)c2ccc3c(c2)CCCC3)cc1OC [Example I-5]	3.82	4.09	–
COc1ccc(CCNC(=O)C(=NOC(=O)OC2CCCCC2)c2ccc3c(c2)CCCC3)cc1OC [Example I-6]	4.2	4.62	–
COc1ccc(CCNC(=O)C(=NOC(=O)c2ccccc2)c2ccc3c(c2)CCCC3)cc1OC [Example I-7]	3.69	4.1	–
CCOC(=O)ON=C(C(=O)NCCc1ccc(OC)c(OC)c1)c1ccc(Br)cc1 [Example I-10]	–	–	chromatographic logP ([2]; single value given): 3.19
COC(=O)ON=C(C(=O)NCCc1ccc(OC)c(OC)c1)c1ccc2c(c1)CCC2 [Example I-11]	2.78	2.97	–
COc1ccc(CCNC(=O)C(=NOC(C)=O)c2ccc3c(c2)CCC3)cc1OC [Example I-12]	2.65	2.87	–
CCOC(=O)ON=C(C(=O)NCCc1ccc(OC)c(OC)c1)c1ccc2c(c1)CCC2 [Example I-13]	3.04	3.27	–
CCc1ccc(C(=NOC(=O)OC)C(=O)NCCc2ccc(OC)c(OC)c2)cc1 [Example I-14]	2.73	2.94	mortality at 0.05 % [3]: 100%
CCOC(=O)ON=C(C(=O)NCCc1ccc(OC)c(OC)c1)c1ccc(CC)cc1 [Example I-15]	–	–	chromatographic logP ([2]; single value given): 2.98
CCc1ccc(C(=NOC(C)=O)C(=O)NCCc2ccc(OC)c(OC)c2)cc1 [Example I-16]	2.42	2.6	–
CCON=C(C(=S)NCCc1ccc(OC)c(OC)c1)c1ccc(Cl)cc1 [Example II-1, N-[2-(3,4-dimethoxyphenyl)-ethyl]-2-ethoximino-2-(4-chlorophenyl)-thioacetamide]	–	–	chromatographic logP ([2]; e isomer): 3.73; chromatographic logP ([2]; z isomer): 4.03
CCON=C(C(=O)NCCc1ccc(OC)c(OC)c1)c1ccc(Cl)cc1 [Example II-II-1]	–	–	chromatographic logP ([2]; e isomer): 3.07; chromatographic logP ([2]; z isomer): 3.34
CCON=C(C(=O)NCCc1ccc(OC)c(OC)c1)c1ccc2c(c1)OCC2 [Example III-1, N-[2-(3,4dimethoxyphenyl)-ethyl]-2-(2,3-dihydrobenzofuran-6-yl)2-ethoximino-acetamide]	–	–	efficacy compared to the untreated control ([1]; application rate of 500 g/ha): 95%
CCON=C(C(=O)NCCc1ccc(OC)c(OC)c1)c1ccc2c(c1)Cc1ccccc1C2 [Example IV-1]	–	–	chromatographic logP ([2]; e isomer): 3.62; chromatographic logP ([2]; z isomer): 4
CCON=C(C(=S)NCCc1ccc(OC)c(OC)c1)c1ccc2c(c1)CCCC2 [II-2]	4.13	4.41	–
CON=C(C(=S)NCCc1ccc(OC)c(OC)c1)c1ccc(C)cc1 [II-3]	3.15	3.41	–
CCc1ccc(C(=NOC)C(=S)NCCc2ccc(OC)c(OC)c2)cc1 [II-4]	3.5	3.77	mortality at 0.05 % [4]: 100%
CCON=C(C(=S)NCCc1ccc(OC)c(OC)c1)c1ccc(Br)cc1 [II-5]	3.82	4.14	–
CON=C(C(=S)NCCc1ccc(OC)c(OC)c1)c1ccc(Br)cc1 [II-6]	3.5	3.8	efficacy compared to the untreated control [5]: 89%
CCON=C(C(=S)NCCc1ccc(OC)c(OC)c1)c1cccc(CC)c1 [II-8]	3.82	4.09	–
CCON=C(C(=S)NCCc1ccc(OC)c(OC)c1)c1ccc2c(c1)CCC2 [II-10]	3.87	4.13	–
CON=C(C(=O)NCCc1ccc(OC)c(OC)c1)c1ccc2c(c1)OCC2 [III-2]	2.24	2.46	–
CON=C(C(=O)NCCc1ccc(OC)c(OC)c1)c1ccc2c(c1)CCc1ccccc1C2 [IV-2]	3.61	3.87	efficacy compared to the untreated control ([1]; application rate of 50 g/ha): 96%
CCON=C(C(=O)NCCc1ccc(OC)c(OC)c1)c1ccc2c(c1)CCc1ccccc1C2 [IV-3]	3.91	4.2	efficacy compared to the untreated control ([1]; application rate of 50 g/ha): 96%
CON=C(C(=O)NCCc1ccc(OC)c(OC)c1)c1ccc2c(c1)Cc1ccccc1C2 [IV-4]	3.31	3.68	–
